Test results reported in US20090312336A1, “DIHYDROPTERIDINE COMPOUNDS AS ANTI PROLIFERATIVE AGENTS” (ASTRAZENECA AB, priority 2006, published 2009).
Read-outs that look alike come from different tables or passages of the source.

Experiments:
recombinant Plk1 = target: T1, recombinant Plk1 (Homo sapiens, UniProt P53350); test: In vitro Plk1 enzyme assay (SPA); assay type: biochemical
T1 construct: The full-length Plk1 protein is expressed in insect cells as an N-terminal 6His tag fusion; 6His (N); made in house; host or cells: insect cells (Plk1); E. coli (GST-Cdc25C substrate)
T1 sequence (P53350 whole entry, the tested form may be a part): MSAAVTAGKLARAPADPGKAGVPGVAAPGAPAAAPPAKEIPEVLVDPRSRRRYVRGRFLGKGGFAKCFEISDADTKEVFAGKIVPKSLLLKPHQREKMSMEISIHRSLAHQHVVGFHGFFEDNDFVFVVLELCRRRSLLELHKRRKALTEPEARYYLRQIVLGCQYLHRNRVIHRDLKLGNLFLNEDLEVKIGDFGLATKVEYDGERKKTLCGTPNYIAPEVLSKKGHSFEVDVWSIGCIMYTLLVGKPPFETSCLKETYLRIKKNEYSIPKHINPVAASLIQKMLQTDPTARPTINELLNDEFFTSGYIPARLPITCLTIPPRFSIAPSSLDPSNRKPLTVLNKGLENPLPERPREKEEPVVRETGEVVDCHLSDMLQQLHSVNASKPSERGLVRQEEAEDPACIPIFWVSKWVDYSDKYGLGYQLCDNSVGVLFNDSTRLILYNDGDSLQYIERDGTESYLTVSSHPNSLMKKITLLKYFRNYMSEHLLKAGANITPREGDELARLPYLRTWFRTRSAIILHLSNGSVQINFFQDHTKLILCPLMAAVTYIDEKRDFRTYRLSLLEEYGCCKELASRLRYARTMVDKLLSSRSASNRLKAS
From the text: The assay uses Scintillation Proximity Assay (SPA) technology (Antonsson et al., Analytical Biochemistry, 1999, 267: 294-299) to determine the ability of test compounds to inhibit phosphorylation by recombinant Plk1. The full-length Plk1 protein is expressed in insect cells as an N-terminal 6His tag fusion and purified by standard Nickel chelate purification techniques using the His tag.
The amino terminal fragment of Cdc25C (encoding residues 1-165) is expressed in E. coli as a GST fusion and purified using the GST tag by standard purification techniques.
Test compounds were prepared as 10 mM stock solutions in dimethyl sulphoxide (DMSO) and diluted into water as required to give a range of final assay concentrations. Aliquots (5 μl) of each compound dilution were dispensed into a well of a 384-well flat bottom white polystyrene plate (Matrix, Catalogue No. 4316). A 35 μl mixture of recombinant purified Plk1 enzyme (12 ng/well), purified GST-Cdc25C (150 ng/well), adenosine triphosphate (ATP; 64 nM), ^33P-labelled adenosine triphosphate (^33P-ATP; 60 nCi/well) in a buffer solution [comprising 50 mM HEPES pH7.5 buffer, 10 mM manganese chloride (MnCl2), 1 mM dithiothreitol (DTT), 1 mg/ml bovine serum albumin (BSA), 100 μM sodium vanadate (Na3VO4), 100 μM sodium fluoride (NaF) and 10 mM sodium glycerophosphate] was added and the reactions incubated at ambient temperature for 90 minutes.
Reactions were stopped by addition of EDTA (110 mM) and the Cdc25C substrate captured via its GST tag to anti-GST antibody (Molecular Probes, Cat No A-5800) coated Protein A PVT SPA beads (Amersham Biosciences, Catalogue No. RPQ0019; 250 μg/well) in 50 mM HEPES pH7.5 buffer containing 0.05% (w/v) sodium azide and incubated for up to 2 hours, followed by the addition of 20 μl of 4M caesium chloride (final assay concentration of 1M). Plates were then left in the dark overnight before counting on a Packard TopCount NXT.
Radiolabelled phosphorylated substrate is formed in situ as a result of Plk1 mediated phosphorylation. The SPA beads contain a scintillant that can be stimulated to emit light. This stimulation only occurs when a radiolabelled phosphorylated substrate is bound to the surface of the coated SPA bead causing the emission of blue light that can be measured on a scintillation counter. Accordingly, the extent of Plk1 mediated Cdc25C phosphorylation was assessed. The raw assay data were then analysed by non-linear regression analysis and Plk1 enzyme inhibition for a given test compound is expressed as an IC50 value.

[1] = system: human colon tumour cell line HT29; test: Cellular assay: phosphohistone H3 mitotic marker in HT29 cells; assay type: cell-based; conditions: HT-29, 24 h, phosphohistone H3 staining
Description: Chromosome condensation in mitosis is accompanied by phosphorylation of histone H3 on serine 10. Dephosphorylation begins in anaphase and ends at early telophase, thus histone H3 serine 10 phosphorylation acts as an excellent mitotic marker and is used to determine the ability of compounds of the present invention to block cells in mitosis.
Cells of the human colon tumour cell line HT29 were seeded into 96 well black plates (Costar, Catalogue No 3904) in phenol red free Dulbecco's Modified Eagles Medium (DMEM) supplemented with 10% (v/v) FCS and 1% (v/v) L-Glutamine and incubated overnight at 37° C. […] Cells were again washed with PBS and incubated with 50 μl secondary antibody (1:1000 Alexa Fluor 488 goat anti-rabbit (Molecular Probes Cat No A-11008) and Hoechst (1:10000) diluted in PBS 0.05% (v/v) Tween 20 and left for 1 hour at room temperature in the dark. Cells were washed with PBS then covered with fresh PBS and stored at 4° C. until analysis. Images are acquired and analysed in an automated manner using the Cellomics ArrayScan II or VTi. In this assay both hoechst and phosphohistone H3 staining are measured. Hoechst staining generates a valid cell count while phosphohistone H3 staining determines the number of mitotic cells. […] The raw assay data were analysed by non-linear regression analysis and used to determine an IC50 value for each compound.

[2] = Plk1 enzyme, class symbols for IC50, read-out: Kinase Inhibition

Row | SMILES | IC50 (recombinant Plk1; [2]) | IC50 [1] | IC50 (recombinant Plk1; Plk1 enzyme assay, read-out: IC50 value in the enzyme assay)
1 | CC[C@@H]1CN(C)c2cnc(Nc3ccc(C(=O)NC4CCN(C)CC4)cc3OC)nc2N1C1CCCC1 [Example 1, 4-[[(7R)-8-Cyclopentyl-7-ethyl-5-methyl-6,7-dihydropteridin-2-yl]amino]-3-methoxy-N-(1-methyl-4-piperidyl)benzamide] | < 3 µM | – | –
2 | CC[C@@H]1CN(C)c2cnc(Nc3ccc(CNCC(C)(C)CN(C)C)cc3OC)nc2N1C1CCCC1 [Example 3, N-[[4-[[(7R)-8-Cyclopentyl-7-ethyl-5-methyl-6,7-dihydropteridin-2-yl]amino]-3-methoxy-phenyl]methyl]-N′,N′,2,2-tetramethyl-propane-1,3-diamine] | 6 to 15 µM | – | –
3 | CC[C@@H]1CN(C)c2cnc(Nc3ccc(C(=O)NCC(C)(C)CN(C)C)cc3OC)nc2N1C1CCCC1 [Example 2, 4-[[(7R)-8-Cyclopentyl-7-ethyl-5-methyl-6,7-dihydropteridin-2-yl]amino]-N-(3-dimethylamino-2,2-dimethyl-propyl)-3-methoxy-benzamide] | < 3 µM | – | –
4 | CCOc1cc(C(=O)NC2CCN(C)CC2)ccc1Nc1ncc2c(n1)N(C1CCCC1)[C@H](CC)CN2C [Example 8, 4-[[(7R)-8-Cyclopentyl-7-ethyl-5-methyl-6,7-dihydropteridin-2-yl]amino]-3-ethoxy-N-(1-methyl-4-piperidyl)benzamide] | < 3 µM | – | –
5 | COc1cc(C(=O)NC2CCN(C)CC2)ccc1Nc1ncc2c(n1)N(C1CCCC1)[C@H](C1CC1)CN2C [Example 6, 4-{[(7R)-8-Cyclopentyl-7-cyclopropyl-5-methyl-5,6,7,8-tetrahydropteridin-2-yl]amino}-3-methoxy-N-(1-methylpiperidin-4-yl)benzamide] | < 3 µM | 0.256 µM | 0.699 µM
6 | CC[C@@H]1CN(CC)c2cnc(Nc3ccc(C(=O)NC4CCN(C)CC4)cc3OC)nc2N1C1CCCC1 [Example 5, 4-[[(7R)-8-Cyclopentyl-5,7-diethyl-6,7-dihydropteridin-2-yl]amino]-3-methoxy-N-(1-methyl-4-piperidyl)benzamide] | < 3 µM | – | –
7 | CC[C@@H]1CN(C)c2cnc(Nc3ccc(CNC4CCN(C)CC4)c(F)c3)nc2N1C1CCCC1 [Example 4, (7R)-8-Cyclopentyl-7-ethyl-N-[3-fluoro-4-[[(1-methyl-4-piperidyl)amino]methyl]phenyl]-5-methyl-6,7-dihydropteridin-2-amine] | 3 to 6 µM | – | –
8 | CCC[C@@H]1CN(C)c2cnc(Nc3ccc(C(=O)NC4CCN(C)CC4)cc3OC)nc2N1C1CCCC1 [Example 7, 4-{[(7R)-8-Cyclopentyl-5-methyl-7-propyl-5,6,7,8-tetrahydropteridin-2-yl]amino}-3-methoxy-N-(1-methylpiperidin-4-yl)benzamide] | < 3 µM | – | –
